Reference: patent US8686156B2, “Thiazole derivatives as pesticides” (priority 2010, dated 2014)

Columns and labels:
[1] = logP determination by HPLC (formic acid method); assay type: physicochemical; settings: reversed-phase HPLC column (C18), reversed-phase column (C 18), 55° C., acidic range (pH 3.4), read-out: log P(HCOOH)
Protocol: 1) Description of the Method for Determining the logP Values (Formic Acid Method) The logP values were determined in accordance with EEC Directive 79/831 Annex V.A8 by HPLC (High Performance Liquid Chromatography) using a reversed-phase column (C 18). Temperature: 55° C. Mobile phases for determination in the acidic range (pH 3.4): Mobile phase A: acetonitrile+1 ml of formic acid/litre. Mobile phase B: water+0.9 ml of formic acid/litre. Gradient: 10% mobile phase A/90% mobile phase B to 95% mobile phase A/5% mobile phase B over 4.25 min. Calibration was carried out using unbranched alkan-2-ones (having from 3 to 16 carbon atoms) with known logP values (the logP values were determined by the retention times using linear interpolation between two successive alkanones). The lambda max values were determined in the maxima of the chromatographic signals using the UV spectra from 200 nm to 400 nm.

[2] = test system: green peach aphid (Myzus persicae); assay: Myzus test, spray treatment; assay type: in vivo; settings: application rate of 500 g/ha; spray treatment of Chinese cabbage discs; after 6 days
Protocol: Myzus Test Spray Treatment Solvent: 78 parts by weight of acetone • • 1.5 parts by weight of dimethylformamide Emulsifier: 0.5 part by weight of alkylaryl polyglycol ether To produce a suitable preparation of active compound, 1 part by weight of active compound is mixed with the stated amounts of solvent and emulsifier, and the concentrate is diluted with emulsifier-containing water to the desired concentration. Discs of Chinese cabbage (Brassica pekinensis) infected by all stages of the green peach aphid (Myzus persicae) are sprayed with an active compound preparation of the desired concentration. After 6 days, the effect in % is determined. 100% means that all of the aphids have been killed; 0% means that none of the aphids have been killed.

chromatographic logP [1]	Structure (SMILES)	effect in % (100% means that all of the aphids have been killed) [2] [%]
2.27	Clc1nc(-c2cccnc2)sc1-c1cccc(-c2ncccn2)n1 [2-{6-[4-Chloro-2-(pyridin-3-yl)-1,3-thiazol-5-yl]pyridin-2-yl}pyrimidine]	–
2.15	Fc1nc(-c2cccnc2)sc1-c1cccc(-c2ncccn2)n1 [Example 1, 2-[6-(4-Fluoro-2-pyridin-3-ylthiazol-5-yl)pyridin-2-yl]pyrimidine]	100
3.27	Clc1cnc(-c2cccc(-c3sc(-c4cccnc4)nc3Cl)n2)nc1 [5-Chloro-2-{6-[4-chloro-2-(pyridin-3-yl)-1,3-thiazol-5-yl]pyridin-2-yl}pyrimidine]	–
